Experimental data reported in PubChem BioAssay (NCI).
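Assay format: 96-well plates, 48-hour exposure. TGI: concentration producing complete growth inhibition.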

Key:
Assay in all cases: NCI-60 cell line screen, 48 h
RPMI-8226 leukemia = test system: RPMI-8226 leukemia
MCF7 breast = test system: MCF7 breast
TK-10 renal = test system: TK-10 renal
CCRF-CEM leukemia = test system: CCRF-CEM leukemia
LOX IMVI melanoma = test system: LOX IMVI melanoma
HCT-116 colon = test system: HCT-116 colon
HCT-15 colon = test system: HCT-15 colon
DU-145 prostate = test system: DU-145 prostate
ACHN renal = test system: ACHN renal
COLO 205 colon = test system: COLO 205 colon
EKVX NSCLC = test system: EKVX NSCLC
HT29 colon = test system: HT29 colon
MDA-N = test system: MDA-N
MDA-MB-435 = test system: MDA-MB-435
SK-MEL-2 melanoma = test system: SK-MEL-2 melanoma
SF-295 CNS = test system: SF-295 CNS
SK-OV-3 ovarian = test system: SK-OV-3 ovarian
CAKI-1 renal = test system: CAKI-1 renal
MDA-MB-231 breast = test system: MDA-MB-231 breast
HL-60(TB) leukemia = test system: HL-60(TB) leukemia
SK-MEL-5 melanoma = test system: SK-MEL-5 melanoma
IGROV1 ovarian = test system: IGROV1 ovarian
OVCAR-5 ovarian = test system: OVCAR-5 ovarian
UACC-257 melanoma = test system: UACC-257 melanoma
A549 NSCLC = test system: A549 NSCLC
SF-539 CNS = test system: SF-539 CNS
UACC-62 melanoma = test system: UACC-62 melanoma
NCI/ADR-RES ovarian = test system: NCI/ADR-RES ovarian
T-47D breast = test system: T-47D breast
U251 CNS = test system: U251 CNS
OVCAR-3 ovarian = test system: OVCAR-3 ovarian
SF-268 CNS = test system: SF-268 CNS
HS 578T breast = test system: HS 578T breast
OVCAR-4 ovarian = test system: OVCAR-4 ovarian
SK-MEL-28 melanoma = test system: SK-MEL-28 melanoma
SR leukemia = test system: SR leukemia
K-562 leukemia = test system: K-562 leukemia
RXF 393 renal = test system: RXF 393 renal
NCI-H23 lung = test system: NCI-H23 lung
HCC-2998 colon = test system: HCC-2998 colon
NCI-H460 lung = test system: NCI-H460 lung
SW-620 colon = test system: SW-620 colon
BT-549 breast = test system: BT-549 breast
PC-3 prostate = test system: PC-3 prostate
NCI-H226 lung = test system: NCI-H226 lung
MOLT-4 leukemia = test system: MOLT-4 leukemia
SN12C renal = test system: SN12C renal
M14 melanoma = test system: M14 melanoma
SNB-19 CNS = test system: SNB-19 CNS
OVCAR-8 ovarian = test system: OVCAR-8 ovarian
HOP-62 NSCLC = test system: HOP-62 NSCLC
786-0 renal = test system: 786-0 renal
A498 renal = test system: A498 renal
HOP-92 NSCLC = test system: HOP-92 NSCLC
MALME-3M melanoma = test system: MALME-3M melanoma
NCI-H522 lung = test system: NCI-H522 lung
UO-31 renal = test system: UO-31 renal
KM12 colon = test system: KM12 colon

SMILES: COC(=O)[C@]12CC[C@H]3CN(C(=O)OCc4ccccc4)[C@H]([C@H]31)[C@H](C(=O)OCC[Si](C)(C)C)N2S(=O)(=O)c1ccc(C)cc1
- TGI (RPMI-8226 leukemia): > 100 µM
- TGI (MCF7 breast): > 100 µM
- TGI (TK-10 renal): > 100 µM
- TGI (CCRF-CEM leukemia): > 100 µM
- TGI (LOX IMVI melanoma): > 100 µM
- TGI (HCT-116 colon): > 100 µM
- TGI (HCT-15 colon): > 100 µM
- TGI (DU-145 prostate): > 100 µM
- TGI (ACHN renal): > 100 µM
- TGI (COLO 205 colon): > 100 µM
- TGI (EKVX NSCLC): > 100 µM
- TGI (HT29 colon): > 100 µM
- TGI (MDA-N): > 100 µM
- TGI (MDA-MB-435): > 100 µM
- TGI (SK-MEL-2 melanoma): > 100 µM
- TGI (SF-295 CNS): > 100 µM
- TGI (SK-OV-3 ovarian): > 100 µM
- TGI (CAKI-1 renal): > 100 µM
- TGI (MDA-MB-231 breast): > 100 µM
- TGI (HL-60(TB) leukemia): > 100 µM
- TGI (SK-MEL-5 melanoma): > 100 µM
- TGI (IGROV1 ovarian): > 100 µM
- TGI (OVCAR-5 ovarian): > 100 µM
- TGI (UACC-257 melanoma): > 100 µM
- TGI (A549 NSCLC): > 100 µM
- TGI (SF-539 CNS): > 100 µM
- TGI (UACC-62 melanoma): > 100 µM
- TGI (NCI/ADR-RES ovarian): > 100 µM
- TGI (T-47D breast): > 100 µM
- TGI (U251 CNS): > 100 µM
- TGI (OVCAR-3 ovarian): > 100 µM
- TGI (SF-268 CNS): > 100 µM
- TGI (HS 578T breast): > 100 µM
- TGI (OVCAR-4 ovarian): > 100 µM
- TGI (SK-MEL-28 melanoma): > 100 µM
- TGI (SR leukemia): > 100 µM
- TGI (K-562 leukemia): > 100 µM
- TGI (RXF 393 renal): > 100 µM
- TGI (NCI-H23 lung): > 100 µM
- TGI (HCC-2998 colon): > 100 µM
- TGI (NCI-H460 lung): > 100 µM
- TGI (SW-620 colon): > 100 µM
- TGI (BT-549 breast): > 100 µM
- TGI (PC-3 prostate): > 100 µM
- TGI (NCI-H226 lung): > 100 µM
- TGI (MOLT-4 leukemia): > 100 µM
- TGI (SN12C renal): > 100 µM
- TGI (M14 melanoma): > 100 µM
- TGI (SNB-19 CNS): > 100 µM
- TGI (OVCAR-8 ovarian): > 100 µM
- TGI (HOP-62 NSCLC): > 100 µM
- TGI (786-0 renal): > 100 µM
- TGI (A498 renal): > 100 µM
- TGI (HOP-92 NSCLC): 9.68 µM
- TGI (MALME-3M melanoma): > 100 µM
- TGI (NCI-H522 lung): > 100 µM
- TGI (UO-31 renal): > 100 µM
- TGI (KM12 colon): > 100 µM
